Test results: US7530461B2, “Esters of 5-aminolevulinic acid as photosensitizing agents in photochemotherapy” (PhotoCure ASA, priority 1995, dated 2009)
“Also recorded” adds a separate entry of the source. Where a name gives a salt, the structure may show the parent alone.

Legend:
normal skin of nude mice [1] = assay: Fluorescence microscopy of mouse skin biopsies after topical application; format: in vivo; conditions: 1 h after topical application
Experimental: (§1) Treatment procedure. One of the creams was painted on the normal skin at right flank region of each mouse, and covered by a semi-permeable dressing (3M, St Paul, Minn., USA) for various time intervals (from 0.25 to 24 h) before fluorescence measurements in situ or being biopsied for microscopic fluorescence imaging. About 0.2 g cream was applied to an approximate 2.25 cm^2 area of the skin. In the case of i.p. injection the mice were given ALA or its methylester at a dose of 150 mg/kg. At least three mice were used for each condition.
Fluorescence microscopy. After the creams were topically applied to the skin of mice for various times (as indicated above), the skin was biopsied and the frozen tissue sections were cut with a cryostat to a thickness of 8 μm. The fluorescence microscopy was carried out using an Axioplan microscope (Zeiss, Germany) with a 100 W mercury lamp. The fluorescence images were recorded by a light-sensitive thermoelectrically cooled charge coupled device (CCD) camera (resolution: 385×578 pixels with a dynamic range of 16 bits per pixel)(Astromed CCD 3200, Cambridge, UK) and hard copies on a video printer (Sony multiscan video printer UP-930). The filter combination used for detection of porphyrin fluorescence consisted of 390-440 nm excitation filter, a 460 nm beam splitter and a >600 nm emission filter.
II. […] The fluorescence intensity of the porphyrins increased with the time after the application.

[2] = test system: normal skin of nu/nu nude mice; assay: Protoporphyrin IX production in the skin of mice by CCD microscopy of biopsies; format: in vivo; conditions: 20% w/w cream; for time after topical application at which conversion into protoporphyrin IX (PpIX) is seen: normal skin of nu/nu nude mice; for time of maximum PpIX fluorescence after application: topical, 6 hours was the latest time point studied
Experimental: A commercial oil-in-water cream containing (20% w/w) one of the chemicals (free ALA, ALA methylester, ALA ethylester and ALA propylester) (see Example 1) was topically applied to the normal skin of nu/nu nude mice for 0.5, 1, 3 and 6 hours, then biopsied and evaluated by means of microscopic fluorescence photometry incorporating a light-sensitive thermol-electrically cooled charge coupled device (CCD) camera. […] The fluorescence intensity of PpIX in the skin increased with the time of the application and the maximum amounts of the fluorescence were seen about 6 hours (the latest time point studied) after the application in all cases.

normal skin of nude mice [3] = assay: In situ measurement of PpIX fluorescence in the skin of mice by an optical-fiber-based system; format: in vivo; conditions: for PpIX fluorescence in normal mouse skin after cream containing the agent alone: without ALA methylester
Experimental: Chemicals. 5-aminolevulinic acid (ALA) methyl-, ethyl- and propyl-esters (H2N—CH2COOCH2—CH2COO—R; R can be CH3, CH2—CH2—CH3) were prepared by Norsk Hydro Research Center (Porsgrunn, Norway) as described in Examples 1 to 3. Free ALA hydrochloride and desferrioxamine mesylate (DF) were purchased from Sigma Chemical Company (St. Louis, Mo., USA). Dimethyl sulphoxide (DMSO) was obtained from Janssen Chimica (Geel, Belgium). Commercial oil-water creams (Unguentum Merck, Darmstadt, Germany) containing 20% one of the ALA ester derivatives (w/w), 20% free ALA, 20% ALA methylester plus 5% DF, 20% ALA methylester plus 20% DMSO, or 20% ALA methylester plus 5% DF and 20% DMSO were freshly prepared prior to use. All creams were made by the Pharmacy at the Norwegian Radium Hospital. For intraperitoneal injection, ALA and its methylester were freshly dissolved in saline. All other chemicals used were of the highest purity commercially available.
Animals. Female Balb/c nu/nu athymic nude mice were obtained from the Animal Laboratory at the Norwegian Radium Hospital and kept under specific-pathogen-free conditions. At the start of the experiments the mice were 6-7 weeks old weighing 18-24 g. Three mice were housed per cage with autoclaved covers in a dark room during the experiments.
as §1
Fluorescence spectroscopic measurements in situ. A perkin Elmer LS-50 fluorescence spectrometer equipped with a red-sensitive photomultiplier (Hamamatsu R 928) was used. This instrument has a pulsed Xenon arc light source and phase sensitive detection, such that fluorescence can be readily measured. Part of the excitation beam (set at 408 nm for fluorescence measurements) was reflected into a 600 μm core multimodus optical quartz fiber (No. 3501 393, Dornier Medizintechnik, GmbH, Germering, Germany) by means of a mirror for application onto the subject through a hand held probe. Emission in the region of 550-750 nm was measured via emission fibres collecting information through the probe.
I. The effect of DF and/or DMSO on the build up of fluorescence in the normal skin of mice in situ was ascertained various times after topical administration of ALA-methylester. Methods were performed as described in Example 9.

[4] = test system: BCC lesions and adjacent normal skin; assay: Control one week after treatment (cream and light irradiation) of BCC patient; format: in vivo, human
[5] = test system: BCC lesions and surrounding normal skin; assay: PpIX production in human BCC and surrounding normal skin by CCD microscopy of biopsies; format: in vivo
Experimental: […] After removal of dressings and cream in vivo fluorescence was measured at the surface of tumor tissue and adjacent normal skin by means of a spectrofluorometer. Punch biopsies of the same areas were removed and samples were immediately immersed in liquid nitrogen. The tissue sections were cut with a cryostat microtome to a thickness of 8 μm. The localization pattern of the porphyrin fluorescence in the tissue sections was directly observed by means of fluorescence microscopy. The same frozen sections were subsequently stained with routine H&E staining for histological identification.
The same sections were subsequently stained with routine H&E staining for histological identification. Fluorescence microscopy was carried out with an Axioplan microscope (Zeiss, Germany). Fluorescence images and quantitative measurements were performed by a light-sensitive thermol-electrically cooled charge coupled device (CCD) camera (Astromed CCD 3200, Cambridge, UK) and an image processing unit (Astromed/Visilog, PC 486DX2 66 MHz VL). The main purpose for such quantitative measurements is to determine the exact penetration of ALA-induced porphyrins from tissue surface to the bottom layers of cancer lesions. The results are shown in FIGS. 8 and 9 in which the fluorescence intensity is expressed as a function of depth of cancer lesion.
The tests were performed as described in Example 11.
Each of the following figures show both (A) fluorescence images of either the bottom layer of BCC lesions or of the surrounding normal skin. Curves indicating the fluorescence intensity as a function of depth of the BCC lesions or of the normal skin are also shown (B).

[6] = test system: basal cell carcinomas (BCCs); assay: Topical ALA-based PDT of patients with basal cell carcinomas; format: in vivo, human
normal skin of nude mice [7] = assay: In situ measurement of PpIX fluorescence in the skin of mice by an optical-fiber-based system; format: in vivo; conditions: 14 hours after topical application; listed as free ALA
[8] = topical application for 24 hours

Row | SMILES | localization of porphyrin fluorescence in mouse skin (normal skin of nude mice [1]) | time after topical application at which conversion into protoporphyrin IX (PpIX) is seen [2] [h] | time of maximum PpIX fluorescence after application [2] | PpIX fluorescence in normal mouse skin after cream containing the agent alone (normal skin of nude mice [3]; topical) | also measured
1 | CCOC(=O)CCC(=O)CN.Cl [ALA ethylester, ethyl 5-aminolevulinate hydrochloride] | fluorescence in the epidermis (Ep), epithelial hair follicles and sebaceous gland (arrows), but not in the dermis (De) | 0.5 | about 6 hours | – | –
2 | CCCOC(=O)CCC(=O)CN.Cl [ALA propylester, n-propyl 5-aminolevulinate hydrochloride] | fluorescence in the epidermis (Ep), epithelial hair follicles and sebaceous gland (arrows), but not in the dermis (De) | 0.5 | about 6 hours | – | –
3 | NCC(=O)CCC(=O)O [ALA, 5-aminolevulinic acid] | fluorescence in the epidermis (Ep), epithelial hair follicles and sebaceous gland (arrows), but not in the dermis (De) | 0.5 | about 6 hours | – | time after topical application at which PpIX fluorescence was built up (normal skin of nude mice [3]; 20% cream, normal skin of nude mice): 1.5 h; erythema in adjacent normal skin exposed to cream and light irradiation [4]: marked erythema; tumor response in treatment fields [4]: central necrotic area corresponding to the tumor; distribution of PpIX fluorescence from top to bottom of BCC lesions ([5]; 20% w/w cream, 24 hours, patient): homogeneous distribution of PpIX fluorescence; distribution of porphyrin fluorescence in the bottom layer of BCC and surrounding normal skin [5, 8]: homogenous distribution; fluorescence intensity ratio between BCC and normal skin [5, 8]: about 1; porphyrin fluorescence/production in BCC, ALA methyl ester versus free ALA alone [5, 8]: less than that in the case of ALA methyl ester; complete response rate of nodular BCCs [6]: low complete response rate; superficial BCCs showing complete regression ([6]; past five years): more than 90%; PpIX fluorescence in other areas of the skin and internal organs (ear, dermis, muscle, brain, liver) (normal skin of nude mice [7]): a strong fluorescence was also seen in the ear as well as in the other areas of the skin; also recorded: a strong fluorescence of free ALA-induced porphyrins was found in regions of the skin outside the area where the cream was topically applied
4 | CC(=O)N(O)CCCCCNC(=O)CCC(=O)N(O)CCCCCNC(=O)CCC(=O)N(O)CCCCCN [DF, desferrioxamine mesylate] | – | – | – | some fluorescence of PpIX | effect on production of ALA methylester-induced PpIX (normal skin of nude mice [3]; topical, with 20% ALA methylester cream, normal mouse skin): significantly enhanced; also recorded: significant effect in enhancing the production
5 | C[S+](C)[O-] [DMSO, Dimethyl sulphoxide] | – | – | – | did not show any fluorescence | –
